In this assay the target is T1, human intracellular domain of KDR (VEGF Receptor-2) (Homo sapiens, UniProt P35968).
T1 construct: A fusion protein containing the intracellular domain (amino acids 793 to 1357) of the KDR and N-terminally tagged to GST; made in house; host or cells: Sf9 insect cells (baculovirus, pDEST20) for GST-KDR-cyt; E. coli BL21 (pGEX-4T-1) for GST-PLCγ
T1 sequence (P35968 794-1356 limits assumed): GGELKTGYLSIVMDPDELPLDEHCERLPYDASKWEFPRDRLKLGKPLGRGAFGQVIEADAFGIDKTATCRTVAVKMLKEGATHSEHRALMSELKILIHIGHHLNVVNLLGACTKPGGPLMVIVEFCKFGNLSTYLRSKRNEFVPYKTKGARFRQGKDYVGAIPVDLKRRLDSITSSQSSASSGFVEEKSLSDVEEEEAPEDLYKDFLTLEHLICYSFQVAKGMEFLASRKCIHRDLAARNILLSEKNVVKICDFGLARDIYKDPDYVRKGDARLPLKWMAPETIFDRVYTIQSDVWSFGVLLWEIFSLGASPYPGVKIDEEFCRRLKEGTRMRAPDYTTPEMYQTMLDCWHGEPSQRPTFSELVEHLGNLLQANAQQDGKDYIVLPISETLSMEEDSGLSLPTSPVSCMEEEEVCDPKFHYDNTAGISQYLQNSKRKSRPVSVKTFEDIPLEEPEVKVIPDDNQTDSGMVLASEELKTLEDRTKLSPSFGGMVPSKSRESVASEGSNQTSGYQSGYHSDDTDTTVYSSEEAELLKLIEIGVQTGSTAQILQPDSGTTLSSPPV
In words: In vitro KDR kinase assay. It is filed as biochemical. The conditions noted are these: IC50 as molar concentration; GST-KDR-cyt, substrate phospholipase Cγ, ATP 100 μM, 30 min room temperature, time-resolved fluorometry. As for the experimental part: The intracellular domain of the KDR receptor was used in the in vitro KDR assay. This domain contains the tyrosine kinase domain of KDR, and when expressed in Sf9 cells, this domain is constitutively active i.e. the kinase domain is phosphorylated on tyrosine residues.
The compounds to be tested were dissolved in DMSO at 10 mM, stored at −20° C. and protected from light. The maximum concentration of DMSO in the in vitro assay was 0.1%. Control samples received the same concentration of solvent as the samples treated with the test compounds.
For the kinase assays, black 96 wells MaxiSorp microtiter plates were coated by an overnight incubation with 100 μl/well of a 2.5 μg/ml solution of phospholipase Cγ in TBS buffer (40 mM Tris-HCl, pH 7.4, 20 mM Mg(C2H3O2)2, 0.02% NaN3) at 4° C. The plates were washed 3 times with TBS buffer containing 0.1% Tween-20, and the residual binding sites were masked by incubation with 1% BSA in TBS buffer containing 0.1% Tween-20 for 1 h. The plates were washed again and the test compounds were added at final concentrations up to 10 μM, together with ATP at the final concentration of 100 μM in 50 μl TBS buffer/well. Then, 50 μl of the human intracellular domain of KDR (VEGF Receptor-2) finally diluted 3000-3500 fold were added and were incubated for 30 min at room temperature. The plates were washed and 100 μl of the Europium labelled PY-20 anti-phosphotyrosine antibody (Wallac, FIN) were incubated in each well at the concentration of approximately 114 ng/ml for 2 h. Then, the plates were washed and 100 μl of enhancer solution (Wallac, FIN) were incubated in each well for 5 min in the dark. The plates were read in a Victor 1420 multilabel counter, using a Europium protocol for time-resolved fluorometry (Wallac, FIN): excitation 340 nm, emission 615 nm, sample pulse cycle 400 μs. Fluorescence was measured for 400 μs between flashes after a delay time of 400 μs. The background measured in the absence of enzyme was subtracted from all samples. The molar concentrations that inhibited 50% of the maximal enzymatic activity (IC50) were calculated from the dose-response curve, by fitting a straight line between the two concentrations immediately above and below the 50% inhibition point (i.e. by solving the equation y=a+bx).
A word on the IC50: it is the point on the concentration scale where inhibition reaches its midpoint. A high value points to weaker potency. On to `COc1cc(F)ccc1CONC(=O)c1ccccc1NCc1ccncc1` [Compound 39, N-(4-Fluoro-2-methoxy-benzyloxy)-2-[(pyridin-4-ylmethyl)-amino]-benzamide], for which the IC50 is 6.31 nM.
The result for `Cc1ccc(CONC(=O)c2ccccc2NCc2ccncc2)c(F)c1F` [Compound 40, N-(2,3-Difluoro-4-methyl-benzyloxy)-2-[(pyridin-4-ylmethyl)-amino]-benzamide] reads 10 nM.
The result for `Cc1ccc(CONC(=O)c2ccccc2NCc2ccncc2)cc1F` [Compound 41, N-(3-Fluoro-4-methyl-benzyloxy)-2-[(pyridin-4-ylmethyl)-amino]-benzamide] reads 20 nM; that for `Cc1ccc(F)cc1CONC(=O)c1ccccc1NCc1ccncc1` [Compound 42, N-(5-Fluoro-2-methyl-benzyloxy)-2-[(pyridin-4-ylmethyl)-amino]-benzamide], 10 nM; that for `COc1c(F)c(F)c(CONC(=O)c2ccccc2NCc2ccncc2)c(F)c1F` [Compound 43, 2-[(Pyridin-4-ylmethyl)-amino]-N-(2,3,5,6-tetrafluoro-4-methoxy-benzyloxy)benzamide], 20 nM.
In turn, `O=C(NOCc1ccc(Br)cc1)c1ccccc1NCc1ccncc1` [Compound 44, N-(4-Bromo-benzyloxy)-2-[(pyridin-4-ylmethyl)-amino]-benzamide] showed an IC50 of 50.1 nM.
`O=C(NOCc1ccccc1I)c1ccccc1NCc1ccncc1` [Compound 45, N-(2-Iodo-benzyloxy)-2-[(pyridin-4-ylmethyl)-amino]-benzamide]: the half-maximal inhibitory concentration (IC50) is 31.6 nM.
`O=C(NOCc1cccc(I)c1)c1ccccc1NCc1ccncc1` [Compound 46, N-(3-Iodo-benzyloxy)-2-[(pyridin-4-ylmethyl)-amino]-benzamide]: half-maximal inhibition (IC50) was put at 63.1 nM.
Then `Cc1ccc(CONC(=O)c2ccccc2NCc2ccncc2)cc1` [Compound 47, N-(4-Methyl-benzyloxy)-2-[(pyridin-4-ylmethyl)-amino]-benzamide], with 15.8 nM; and `O=C(NOCc1cccc(C#CCO)c1)c1ccccc1NCc1ccncc1` [Compound 50, N-[3-(3-Hydroxy-prop-1-ynyl)-benzyloxy]-2-[(pyridin-4-ylmethyl)-amino]-benzamide], with 63.1 nM.
`O=C(NOCc1ccccc1C#CCO)c1ccccc1NCc1ccncc1` [Compound 52, N-[2-(3-Hydroxy-prop-1-ynyl)-benzyloxy]-2-[(pyridin-4-ylmethyl)-amino]-benzamide] gave a concentration for half-maximal inhibition (IC50) of 63.1 nM. This counts as double-digit nanomolar.
Then `N#CCc1ccccc1CONC(=O)c1ccccc1NCc1ccncc1` [Compound 56, N-(2-Cyanomethyl-benzyloxy)-2-[(pyridin-4-ylmethyl)-amino]-benzamide], with 50.1 nM; and `O=C(NOCc1ccc(CO)cc1)c1ccccc1NCc1ccncc1` [Compound 58, N-(4-Hydroxymethyl-benzyloxy)-2-[(pyridin-4-ylmethyl)-amino]-benzamide], with 63.1 nM; and `O=C(NOCc1ccc(F)cc1C(F)(F)F)c1ccccc1NCc1ccncc1` [Compound 59, N-(4-Fluoro-2-trifluoromethyl-benzyloxy)-2-[(pyridin-4-ylmethyl)-amino]-benzamide], with 31.6 nM.
Then `O=C(NOCc1c(F)cccc1C(F)(F)F)c1ccccc1NCc1ccncc1` [Compound 60, N-(2-Fluoro-6-trifluoromethyl-benzyloxy)-2-[(pyridin-4-ylmethyl)-amino]-benzamide], with 20 nM; and `O=C(NOCc1ccc(F)c(C(F)(F)F)c1)c1ccccc1NCc1ccncc1` [Compound 61, N-(4-Fluoro-3-trifluoromethyl-benzyloxy)-2-[(pyridin-4-ylmethyl)-amino]-benzamide], with 15.8 nM; and `Cc1ccc(CONC(=O)c2ccccc2NCc2ccncc2)cc1C(F)(F)F` [Compound 62, N-(4-Methyl-3-trifluoromethyl-benzyloxy)-2-[(pyridin-4-ylmethyl)-amino]-benzamide], with 63.1 nM.
Then `COc1ccc(CONC(=O)c2ccccc2NCc2ccncc2)cc1C(F)(F)F` [Compound 63, N-(4-Methoxy-3-trifluoromethyl-benzyloxy)-2-[(pyridin-4-ylmethyl)-amino]-benzamide], with 63.1 nM; and `COc1ccccc1CONC(=O)c1ccccc1NCc1ccncc1` [Compound 64, N-(2-Methoxy-benzyloxy)-2-[(pyridin-4-ylmethyl)-amino]-benzamide], with 50.1 nM.
Turning to `O=C(NOCc1ccccc1OC(F)(F)F)c1ccccc1NCc1ccncc1` [Compound 66, 2-[(Pyridin-4-ylmethyl)-amino]-N-(2-trifluoromethoxy-benzyloxy)-benzamide], the half-inhibitory concentration (IC50) is 63.1 nM. This IC50 and that of the molecule before are within 1.5-fold of each other.
Then `O=C(NOCc1cccc(OC(F)(F)F)c1)c1ccccc1NCc1ccncc1` [Compound 67, 2-[(Pyridin-4-ylmethyl)-amino]-N-(3-trifluoromethoxy-benzyloxy)-benzamide], with 50.1 nM; and `O=C(NOCc1ccc(OC(F)(F)F)cc1)c1ccccc1NCc1ccncc1` [Compound 68, 2-[(Pyridin-4-ylmethyl)-amino]-N-(4-trifluoromethoxy-benzyloxy)-benzamide], with 79.4 nM.
`O=C(NOCc1ccccc1OC(F)F)c1ccccc1NCc1ccncc1` [Compound 69, N-(2-Difluoromethoxy-benzyloxy)-2-[(pyridin-4-ylmethyl)-amino]-benzamide] gave an IC50 of 6.31 nM. This IC50 is about 13-fold lower than that of the molecule before.
Molecule `O=C(NOCc1ccccc1SC(F)(F)F)c1ccccc1NCc1ccncc1` [Compound 70, 2-[(Pyridin-4-ylmethyl)-amino]-N-(2-trifluoromethylsulfanyl-benzyloxy)-benzamide] showed an IC50 of 31.6 nM.
`O=C(NOCc1cc2c(cc1Cl)OCO2)c1ccccc1NCc1ccncc1` [Compound 71, N-(6-Chloro-benzo[1,3]dioxol-5-ylmethoxy)-2-[(pyridin-4-ylmethyl)amino]-benzamide]: the IC50 was 25.1 nM.
Molecule `O=C(NOCc1ccc2c(c1)OCO2)c1ccccc1NCc1ccncc1` [Compound 72, N-(Benzo[1,3]-dioxol-5-ylmethoxy)-2-[(pyridin-4-ylmethyl)-amino]-benzamide] had an IC50 of 39.8 nM.
For `O=C(NOCc1ccc2c(c1)CCC2)c1ccccc1NCc1ccncc1` [Compound 73, N-(Indan-5-ylmethoxy)-2-[(pyridin-4-ylmethyl)-amino]-benzamide], the 50% inhibitory concentration (IC50) was 15.8 nM.
Consider `N#Cc1cccc(CONC(=O)c2ccccc2NCc2ccncc2)c1` [Compound 74, N-(3-Cyano-benzyloxy)-2-[(pyridin-4-ylmethyl)-amino]-benzamide], for which the half-maximal inhibitory concentration (IC50) is 63.1 nM. Against the preceding molecule, the IC50 is about 4-fold higher.
Turning to `N#Cc1ccccc1CONC(=O)c1ccccc1NCc1ccncc1` [Compound 75, N-(2-Cyano-benzyloxy)-2-[(pyridin-4-ylmethyl)-amino]-benzamide], half-maximal inhibition (IC50) required 63.1 nM. This counts as double-digit nanomolar.
The result for `N#Cc1ccc(CONC(=O)c2ccccc2NCc2ccncc2)c(F)c1` [Compound 76, N-(4-Cyano-2-fluoro-benzyloxy)-2-[(pyridin-4-ylmethyl)-amino]-benzamide] reads 25.1 nM.
On to `N#Cc1ccc(CONC(=O)c2ccccc2NCc2ccncc2)cc1Br` [Compound 77, N-(3-Bromo-4-cyano-benzyloxy)-2-[(pyridin-4-ylmethyl)-amino]-benzamide], for which the IC50 was 39.8 nM. This IC50 is about 1.6-fold higher than that of the molecule before.
The result for `N#Cc1ccc(CONC(=O)c2ccccc2NCc2ccncc2)c(Cl)c1` [Compound 78, N-(2-Chloro-4-cyano-benzyloxy)-2-[(pyridin-4-ylmethyl)-amino]-benzamide] reads 15.8 nM.
Take `COc1cc(C#N)ccc1CONC(=O)c1ccccc1NCc1ccncc1` [Compound 79, N-(4-Cyano-2-methoxy-benzyloxy)-2-[(pyridin-4-ylmethyl)-amino]-benzamide]: the half-maximal inhibitory concentration (IC50) is 39.8 nM. Compared with the last molecule, the IC50 is about 2.5-fold higher.
Regarding `N#Cc1ccc(CONC(=O)c2ccccc2NCc2ccncc2)c(I)c1` [Compound 80, N-(4-Cyano-2-iodo-benzyloxy)-2-[(pyridin-4-ylmethyl)-amino]-benzamide], the IC50 is 39.8 nM.
Then `N#Cc1ccc(Br)c(CONC(=O)c2ccccc2NCc2ccncc2)c1` [Compound 81, N-(2-Bromo-5-cyano-benzyloxy)-2-[(pyridin-4-ylmethyl)-amino]-benzamide], with 50.1 nM; and `N#Cc1ccc(CONC(=O)c2ccccc2NCc2ccncc2)c2ccccc12` [Compound 82, N-(4-Cyano-naphthalen-1-ylmethoxy)-2-[(pyridin-4-ylmethyl)-amino]-benzamide], with 15.8 nM.

These data come from patent US8034811B2, “Hydroxamic acid esters and pharmaceutical use thereof” (Leo Pharma A/S, priority 2003, dated 2011).
